According to paper PMC7693880, “Preparation and Evaluation of Amino Acid Conjugates of Celecoxib as Prodrugs to Improve the Pharmacokinetic and Therapeutic Properties of Celecoxib” (Pharmaceutics, 2020):
Where a name gives a salt, the structure may show the parent alone.

Tests used:
[1] = Pharmacokinetic study after oral or intravenous administration; format: in vivo, Sprague Dawley rats; conditions: rat; for increase of the absolute BA of celecoxib: 20 mg/kg
Procedure: Blood samples were collected from the jugular vein using a heparinized syringe at predetermined times. Heparinized blood samples were immediately centrifuged at 6000× g for 5 min. Five-fold volume of ethyl acetate was mixed with plasma, centrifugation was performed at 6000× g for 5 min, and 1 mL of the organic solvent was evaporated. The residues were mixed with 0.1 mL of IPB and centrifuged at 20,000× g for 10 min at 4 °C. The concentration of celecoxib or N-GA1C in the samples was determined by HPLC. PK profiling was performed using PKsolver. Absolute BA and relative BA were calculated using the following equations: Absolute BA (F, %) = ((AUC0–∞)PO/dose PO)/((AUC0–∞)IV/dose IV); Relative BA (%) = ((AUC0–∞)A/dose A)/((AUC0–∞)B/dose B).

[2] = tested on: carrageenan-induced paw edema; experiment: Carrageenan-induced rat paw edema model; format: in vivo, Sprague Dawley rats; conditions: oral 10 mg/kg (equivalent mass of celecoxib)
Procedure: Six-week-old male Sprague Dawley rats (250–260 g) were orally administered celecoxib (10 mg/kg), A1C (equivalent mass of celecoxib), G1C (equivalent mass of celecoxib), N-GA1C (equivalent mass of celecoxib), or IPB as a control. After 1 h, 0.1 mL of carrageenan (1%) was injected into the hind paw of the rats. Carrageenan-induced increase in paw volume (paw edema) was measured at predetermined time points (0, 3, 6, 12, and 24 h). The paw volume of rats up to the knee joint was measured using a plethysmometer. The degree of inhibition of paw edema (%) at each time point was calculated using the following equation: (Control volume − treatment group volume)/Control paw volume × 100.

[3] = Apparent distribution coefficient (logD6.8) measurement, 1-octanol / pH 6.8 isotonic phosphate buffer; format: physicochemical; conditions: 37 °C; for logD: pH 6.8, 1-octanol / pH 6.8 isotonic phosphate buffer, read-out: Log D6.8 (apparent distribution coefficient)
Procedure: For this study, 1-octanol and pH 6.8 isotonic phosphate buffer (IPB) were pre-saturated with IPB and 1-octanol, respectively. 1-octanol (10 mL) was added to 500 μM of celecoxib, A1C, or N-GA1C in 10 mL IPB. The mixture was shaken for 1 h and left at 37 °C for 3 h. The concentration of celecoxib, A1C, G1C, or N-GA1C in the aqueous phase was analyzed by HPLC. The apparent partition coefficients were calculated using the equation (Co − Cw)/Cw, where Co and Cw represent the initial and equilibrium concentration of the drug in the aqueous phase, respectively.

[4] = Drug release study in cecal contents; format: in vitro ADME, Sprague Dawley rats; conditions: incubation with cecal contents, after 24 h
Procedure: Drug release study was performed with the celecoxib derivatives as described previously. Six-week-old male Sprague Dawley rats (250–260 g) were sacrificed using CO2, and a midline incision was made. The contents of the proximal small intestine, distal small intestine, and cecum, liver homogenate, or blood plasma were collected and suspended in IPB (20% (w/v)). A1C, G1C, or N-GA1C in the buffer (0.5 mL, 1 mM) was mixed with 0.5 mL of the suspension and then incubated at 37 °C under nitrogen gas. At the predetermined time points, the samples were extracted with 0.5 mL of ethyl acetate followed by centrifugation at 6000× g for 5 min. Methanol (1.0 mL) was added to the residue obtained from the evaporation of 0.1 mL of the organic layer. The solution was centrifuged at 20,000× g at 4 °C for 10 min. The concentrations of celecoxib, A1C, G1C, and N-GA1C in 20 μL of the supernatant were determined by HPLC.

[5] = male, Sprague Dawley, plasma, IV, 10 mg/kg

| Compound | volume reduction of paw edema ([2]; at 6 h) [%] | volume reduction of paw edema ([2]; at 24 h) [%] | logD [3] | melting point [°C] | increase of the absolute BA of celecoxib ([1]; oral, vs oral celecoxib) | conversion to celecoxib [4] | other results |
| --- | --- | --- | --- | --- | --- | --- | --- |
| Cc1ccc(-c2cc(C(F)(F)F)nn2-c2ccc(S(N)(=O)=O)cc2)cc1 [Celecoxib] | 42.06 ± 4.69 | 20.99 ± 2.791 | 4.01 | – | – | – | Vd [1, 5]: 1.04 L/kg; clearance [1, 5]: 8.01 mL/min/kg; half-life [1, 5]: 1.5 h; AUC(0-inf) ([1]; male, Sprague Dawley, IV, 10 mg/kg, celecoxib in plasma): 6120 ± 520 ng·h/mL; AUC(0-t) ([1]; male, Sprague Dawley, IV, 10 mg/kg, celecoxib in plasma, read-out: AUC0–24): 5990 ± 440 ng·h/mL |
| Cc1ccc(-c2cc(C(F)(F)F)nn2-c2ccc(S(=O)(=O)NC(=O)[C@@H](N)CC(=O)O)cc2)cc1 (as salt: salt) [A1C, aspart-1-yl celecoxib] | – | – | – | 134 to 137 | – | – | – |
| Cc1ccc(-c2cc(C(F)(F)F)nn2-c2ccc(S(=O)(=O)NC(=O)C(CC(=O)O)NC(=O)CN)cc2)cc1 (stereo not shown) [N-GA1C, N-glycyl-aspart-1-yl celecoxib] | 32.42 ± 2.50 | 78.96 ± 1.56 | -0.13 | – | – | – | plasma concentration of N-GA1C ([1]; oral N-GA1C 10 mg/kg, for 24 h): not detected |
| Cc1ccc(-c2cc(C(F)(F)F)nn2-c2ccc(S(=O)(=O)NC(=O)[C@@H](N)CC(=O)O)cc2)cc1 [A1C, aspart-1-yl celecoxib] | – | – | 0.6 | – | approximately two | partially converted to celecoxib | increase in absolute BA ([1]; oral, 10 mg/kg, vs oral celecoxib): no increase |
| Cc1ccc(-c2cc(C(F)(F)F)nn2-c2ccc(S(=O)(=O)NC(=O)C(N)CCC(=O)O)cc2)cc1 (stereo not shown) (as salt: salt) [G1C, glutam-1-yl celecoxib] | – | – | – | 110 to 115 | – | – | – |
| Cc1ccc(-c2cc(C(F)(F)F)nn2-c2ccc(S(=O)(=O)NC(=O)C(N)CCC(=O)O)cc2)cc1 (stereo not shown) [G1C, glutam-1-yl celecoxib] | – | – | 0.8 | – | three | partially converted to celecoxib | Log D6.8 (apparent distribution coefficient) [3]: 0.81 |
